Source: PMC7079008, “Compactness of Protein Folds Alters Disulfide‐Bond Reducibility by Three Orders of Magnitude: A Comprehensive Kinetic Case Study on the Reduction of Differently Sized Tryptophan Cage Model Proteins” (Chembiochem, 2019)
Where a SMILES comes first, the peptide text is derived from it. Bridges are numbered along the chain shown (N, C = ends).

Assay: SS bond reduction by DTT monitored by 1H NMR
Format: physicochemical
Settings: 1.7 mM protein, twofold excess of DTT, 15 °C; for DTT: Conversion rate / DTT: Elapsed time to steady state: pH 7; for DTT: t1/2 of reduction: pH 7, calculated from k1 (Eq. 12); for DTT: k1: pH 7, parameter estimation (phase 1 data)
Procedure: An appropriate reduction protocol was required to unambiguously determine the 3D structures of the above‐introduced pure reduced states. Thus, in agreement with the above discussion, only mild conditions (15 °C and twofold molar excess of […]) were used for the reduction of the four different miniproteins. Determining the structural properties and reduction rates under the same conditions allowed us to elucidate the basis of the observed differences in the reduction rates. […] It appears as if “cutting back” on the α‐helical segment strongly affects the SS bond reducibility, even though the SS bonds of all four models are near the surfaces (Figure 7 A). To our great surprise, we recorded three orders of magnitude differences between the reduction rate constants (Table 3). Whereas the reduction of E2_SS is still extremely fast, tE2_SS/1/2 <≈1 min, that of E5_SS occurs on the timescale of minutes: tE5_SS/1/2 ≈14 min. […] The conversion rate was close to complete for the shorter peptide of E2_SS, whereas the reduction of E19_SS was only 88 % complete. The kinetic parameters of all four model proteins were determined by using a twofold molar excess of DTT, at pH 7, and T=15 °C.
Monitoring reduction kinetics: Peptide samples were prepared between 0.8 and 1.8 mM in 50 mM NaH2PO4–Na2HPO4 buffer (600 μL, pH 6.95), with 10 % D2O. A 0.1 M solution of NaOH was used to set the pH to 7. Sodium trimethylsilylpropanesulfonate (DSS) was added as the internal proton reference standard, set to δ=0.0 ppm under all conditions. ^1H,^1H 2D homonuclear spectra were recorded for the oxidized peptide; thereafter, upon the addition of a different excess of 0.5 M TCEP or DTT, reduction was observed by recording a series of 1D ^1H spectra (ns=64 or 128 scans). Finally, at the end point, ^1H,^1H homonuclear 2D spectra were recorded on the reduced peptide. Data sets were processed by using TopSpin 3.2 software. The conversion rate was determined by using the relative integral of the Trp Hϵ1 signal in the oxidized (IntOX) and reduced (IntRED) form. Each integral was normalized to the integral of DSS. The concentrations were determined by the ratio of the oxidized and reduced integrals and the initial protein concentration.
Parameter estimation: Kinetic parameter estimation was based on the integral of selected NMR signals considered to be proportional to the concentration of the relevant species. The mechanism taken into account is that given by Equations (8), (9), (10), (11):(8) SS+Red→k12SH+Ox (9) 2SH+O2→k2SS (10) [drawing 1] (11) [drawing 2]
in which SS is the […] model protein with an intramolecular S−S bond; 2 SH is the same protein with the S−S bond reduced to two −SH groups; and the symbol Ø means a different phase from that of the reaction mixture, that is, the polymer aggregate as a sink in the first case and the gas phase as a source in the second case.
For parameter estimation, the COPASI 4.16 (Build 104) Biochemical System Simulator software (http://copasi.org/) was used, with the parameter estimation option of the Levenberg–Marquardt method.
To determine the half‐life and initial concentration of the SS species, a kinetic analysis of the temporal evolution of the reactions was performed. […] From the kinetic analysis, the initial concentration of oxygen ([O2]0) could also be estimated, except for one case in which the uncertainty of this parameter was very large, due to the lack of sufficient experimental data.
Because reduction follows second‐order kinetics, the half‐life (t 1/2) of model proteins also depends on the actual concentration of the RA in the reaction mixture [Eq. (12):(12) t1/2=1/k1(cRed,0-cSS,0)ln2-cSS,0/cRed,0

Row | SMILES | DTT: Conversion rate | DTT: Elapsed time to steady state | DTT: t1/2 of reduction | DTT: k1
1 | CC[C@H](C)[C@@H]1NC(=O)[C@H](Cc2ccc(O)cc2)NC(=O)[C@H](CC(C)C)NC(=O)[C@H](CCCNC(=N)N)NC(=O)[C@H](C(C)C)NC(=O)[C@@H](NC(=O)[C@H](CCC(=O)O)NC(=O)[C@H](CCC(=O)O)NC(=O)[C@@H](N)CCC(=O)O)CSSC[C@@H](C(=O)O)NC(=O)[C@@H]2CCCN2C(=O)[C@@H]2CCCN2C(=O)[C@@H]2CCCN2C(=O)[C@H](CCCNC(=N)N)NC(=O)CNC(=O)[C@H](CO)NC(=O)[C@H](CO)NC(=O)[C@@H]2CCCN2C(=O)CNC(=O)CNC(=O)[C@H](CC(=O)O)NC(=O)[C@H](CCCCN)NC(=O)[C@H](CC(C)C)NC(=O)[C@H](Cc2c[nH]c3ccccc23)NC(=O)[C@H](CCC(N)=O)NC1=O [E5_SS] (H-EEECVRLYIQWLKDGGPSSGRPPPC-OH; disulfide 4-25) | 95% | 9 to 10 h | 1.92 h | 0.0363 M⁻¹ s⁻¹
2 | CC[C@H](C)[C@@H]1NC(=O)[C@H](Cc2ccc(O)cc2)NC(=O)[C@H](CC(C)C)NC(=O)[C@H](CCCNC(=N)N)NC(=O)[C@H](C(C)C)NC(=O)[C@@H](NC(=O)[C@H](CCC(=O)O)NC(=O)[C@H](CCC(=O)O)NC(=O)[C@H](CCC(=O)O)NC(=O)[C@H](CCSC)NC(=O)[C@H](CCC(N)=O)NC(=O)[C@H](CCCCN)NC(=O)[C@H](CO)NC(=O)[C@H](CC(C)C)NC(=O)[C@@H](N)CC(=O)O)CSSC[C@@H](C(=O)O)NC(=O)[C@@H]2CCCN2C(=O)[C@@H]2CCCN2C(=O)[C@@H]2CCCN2C(=O)[C@H](CCCNC(=N)N)NC(=O)CNC(=O)[C@H](CO)NC(=O)[C@H](CO)NC(=O)[C@@H]2CCCN2C(=O)CNC(=O)CNC(=O)[C@H](CC(=O)O)NC(=O)[C@H](CCCCN)NC(=O)[C@H](CC(C)C)NC(=O)[C@H](Cc2c[nH]c3ccccc23)NC(=O)[C@H](CCC(N)=O)NC1=O [E11_SS] (H-DLSKQMEEECVRLYIQWLKDGGPSSGRPPPC-OH; disulfide 10-31) | ≈84% | 138 h | 27.65 h | 0.00253 M⁻¹ s⁻¹
3 | CC[C@H](C)[C@@H]1NC(=O)[C@H](Cc2ccc(O)cc2)NC(=O)[C@H](CC(C)C)NC(=O)[C@H](CCCNC(=N)N)NC(=O)[C@H](C(C)C)NC(=O)[C@@H](N)CSSC[C@@H](C(=O)O)NC(=O)[C@@H]2CCCN2C(=O)[C@@H]2CCCN2C(=O)[C@@H]2CCCN2C(=O)[C@H](CCCNC(=N)N)NC(=O)CNC(=O)[C@H](CO)NC(=O)[C@H](CO)NC(=O)[C@@H]2CCCN2C(=O)CNC(=O)CNC(=O)[C@H](CC(=O)O)NC(=O)[C@H](CCCCN)NC(=O)[C@H](CC(C)C)NC(=O)[C@H](Cc2c[nH]c3ccccc23)NC(=O)[C@H](CCC(N)=O)NC1=O [E2_SS] (H-CVRLYIQWLKDGGPSSGRPPPC-OH; disulfide 1-22) | 100% | 5 h | 1.03 h | 0.0673 M⁻¹ s⁻¹
